The source of these data is patent US9107879B1, “Methods of increasing the cytotoxicity of chemotherapeutic agents with multisubstrate inhibitors of histone, protein-lys, polyamine acetylation, and polyamine metabolism” (Vanderbilt University, priority 2010, dated 2015).

A word on the Ki: it is the dissociation constant of the complex between target and ligand, obtained from inhibition or displacement. What is called IC50 is the concentration that gives 50% inhibition.

For data set [1], the target named is T1, recombinant p300 (1284-1660) (Homo sapiens, UniProt Q09472).
T1 construct: p300 protein (residues 1284-1660); made in house
T1 sequence (Q09472 1284-1660): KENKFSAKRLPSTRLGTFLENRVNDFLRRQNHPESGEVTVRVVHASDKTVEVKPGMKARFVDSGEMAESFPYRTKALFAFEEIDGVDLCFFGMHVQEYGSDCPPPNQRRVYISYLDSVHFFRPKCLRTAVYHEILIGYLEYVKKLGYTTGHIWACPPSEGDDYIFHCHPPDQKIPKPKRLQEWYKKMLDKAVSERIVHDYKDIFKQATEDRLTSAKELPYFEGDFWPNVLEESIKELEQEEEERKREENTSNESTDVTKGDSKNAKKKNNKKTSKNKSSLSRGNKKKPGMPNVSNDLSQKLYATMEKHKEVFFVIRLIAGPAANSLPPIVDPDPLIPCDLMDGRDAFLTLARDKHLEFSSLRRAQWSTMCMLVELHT
Description: p300 HAT solution assay, H4 peptide substrate, DTNB detection. The data set is classed as biochemical. The procedure: (A) Structures of compound 1a (spermidine CoA), and the acetylated side chain of a lysine residue of a polypeptide chain. (B) Inhibition of p300 acetylating activity as a function of 1a concentration. The catalytic domain of recombinant p300 (1284-1660) was assayed under steady state conditions using an N-terminal acetylated histone H4 peptide substrate, Ac-H4(1-19)-NH2. Closed circles represent experimental data points; plain line represents theoretical profile based on data reduction software (Prism) using a one site inhibition model. (C) In vitro assay of p300 activity using a 96-well assay kit (ActivMotif) and an H3 peptide substrate (5-23), according to manufacturer's instructions. Bars represent average of duplicates. BK=background (no enzyme); C=control (no inhibitor); [1a]=50 μM.
Assays were performed using the fluorescent HAT assay kit (Active Motif, Carlsbad, Calif.), an H3 peptide as substrate (residues 5-23), the p300 catalytic domain as enzyme, and 50 μM inhibitor in duplicate, according to the manufacturer's instructions. […] The reaction product, CoASH, was detected spectrophotometrically by reaction with 5,5′-dithiobis-2-nitrobenzoic acid (DTNB). Assays were carried out at 30° C. for 30 minutes, conditions which had previously been determined in kinetic assays to sufficient to achieve steady state. […]

Data set [2] deals with H358 cells. Nature of the data set: trypan blue exclusion viability assay. The data set is classed as cell-based. As to conditions: human. The procedure: Cells were either labeled immediately before treatment (starting DNA synthesis rate), or subjected to the indicated treatments and then pulsed on successive days until day 4. DNA synthesis is represented as the percent of starting DNA synthesis rate. Viability was determined for each treatment condition 24 hours post-start of treatment by the trypan blue exclusion assay, with percentages of viable cells indicated to the right of the graph. […]
Cell viability, measured 18 hours after the start of each treatment by the trypan blue exclusion assay, a measure of cellular membrane integrity, confirmed that single agent treatment with either 1a or camptothecin had essentially no effect on cell viability (≧96% viability for untreated cells or single agent-treated cells).
The present inventors used 96-well viability assays as described in Saadatmandi et al (Cancer Gene Therapy (2002) 9:930-9) to examine the effect of 1a on DNA synthesis in H358 cells, as well as the combined effects of 1a and chemotherapeutic agents. […] Following the 6-hour labeling, cells were harvested and incorporation of [^3H]-thymidine was determined by scintillation counting. […] We measured cell viability 24 hours after the start of each treatment by the trypan blue exclusions assay, a measure of cellular membrane breakdown.

Take `CC(C)(COP(=O)(O)OP(=O)(O)OC[C@H]1O[C@@H](n2cnc3c(N)ncnc32)[C@H](O)[C@@H]1OP(=O)(O)O)[C@@H](O)C(=O)NCCC(=O)NCCSCC(=O)NCCCNCCCCN` [1a, spermidine[N1]-CoA]: the Ki in data set [1] (from IC50=Ki(1+Km/S)≅Ki under substrate excess, read-out: estimated Ki for p300 fragment) was 50 to 100 µM. For the same molecule, the IC50 in data set [1] (histone H4 N-terminal peptide substrate, inferred from inhibitory plot, one site model, read-out: IC50, p300HAT catalytic subunit activity) is 50 to 100 µM. Besides, the “cell viability, trypan blue exclusion” value in data set [2] (18 h) and in data set [2] (24 h) was not below 96% in each case.
